In article PMC11684029, “Discovery of VU6024578/BI02982816: An mGlu1 Positive Allosteric Modulator with Efficacy in Preclinical Antipsychotic and Cognition Models” (Journal of Medicinal Chemistry, 2024):
Values joined by “and” are separate entries in the source; they are usually repeats but may differ in a detail not shown here. Identical values can stand only once.

Experiments:
5-HT2B = 5-HT2B (Homo sapiens, UniProt P41595); test: follow-up functional assay; assay type: biochemical
3A4 = 3A4 (Homo sapiens, UniProt P08684); test: inhibition of cytochrome P450 enzymes; assay type: in vitro ADME; set-up: 0.1 mg/mL human liver microsomes (HLM) and Substrate Mix; from tissue; host or cells: human liver microsomes; details: human liver microsomes; read-out: CYP450 3A4 inhibition
Sequence of 3A4 (P08684 whole entry): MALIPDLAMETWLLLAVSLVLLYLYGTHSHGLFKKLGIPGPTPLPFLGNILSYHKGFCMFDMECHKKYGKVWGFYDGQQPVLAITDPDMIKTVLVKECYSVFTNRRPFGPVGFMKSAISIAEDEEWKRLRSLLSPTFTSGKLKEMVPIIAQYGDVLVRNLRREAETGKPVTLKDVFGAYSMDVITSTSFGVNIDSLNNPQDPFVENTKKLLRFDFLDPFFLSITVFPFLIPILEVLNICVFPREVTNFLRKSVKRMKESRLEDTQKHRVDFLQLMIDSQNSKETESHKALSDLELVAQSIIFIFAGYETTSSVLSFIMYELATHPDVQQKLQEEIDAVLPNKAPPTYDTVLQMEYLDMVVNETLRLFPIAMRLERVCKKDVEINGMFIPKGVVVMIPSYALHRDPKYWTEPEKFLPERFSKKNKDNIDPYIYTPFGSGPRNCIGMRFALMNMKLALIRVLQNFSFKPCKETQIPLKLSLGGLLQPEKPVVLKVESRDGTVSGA
Description: A cocktail of substrates for cytochrome P450 enzymes (1A2: Phenacetin, 10 μM; 2C9: Diclofenac, 5 μM; 2D6: Dextromethorphan, 5 μM; 3A4: Midazolam, 2 μM) were mixed for cocktail analysis. For P450 2C19, the substrate stock (Mephenytoin, 40 μM)and substrate mix were prepared separately for discrete analysis. The positive control for pan-P450 inhibition (miconazole) was included alongside each test compound in analysis.
A reaction mixture of 100 mM Kpi, pH 7.4, 0.1 mg/mL human liver microsomes (HLM) and Substrate Mix is prepared and aliquoted into a 96-deepwell block. Test compound and positive control (in duplicate) were then added such that the final concentration of test compound ranged from 0.1–30 μM. […]
Samples were analyzed via electrospray ionization (ESI) on an AB Sciex API-4000 (Foster City, CA) triple-quadrupole instrument that was coupled with Shimadzu LC-10AD pumps (Columbia, MD) and a Leap Technologies CTC PAL autosampler (Carrboro, NC). […]
The IC50 values for each compound were obtained for the individual CYP enzymes by quantitating the inhibition of metabolite formation for each probe substrate. A 0 μM compound condition (or control) was set to 100% enzymatic activity and the effect of increasing test compound concentrations on enzymatic activity could then be calculated from the % of control activity. […]

TNF-alpha = test: Eurofins radioligand binding panel; set-up: species or system human; details: agonist radioligand
Source text: (§1) Table S1. Eurofins Lead Profiling Screen Data
(§2) This is a radioligand binding panel of 80 targets including GPCRs, ion channels, transporters and nuclear hormones. Biochemical assay results are presented as the percent inhibition of specific […]
(§3) Results showing an inhibition or stimulation higher than 50% are considered to represent significant effect and are highlighted

sigma (non-selective) = test: Eurofins radioligand binding panel; set-up: species or system human; details: agonist radioligand
Source text: as §1, §2, §3

rats = test: MK-801 induced disruption of novel object recognition; assay type: in vivo; details: rat, p.o.
Description: Based on our previous work with the mGlu1 PAM 4,[6]−[9],[14]−[19] we first evaluated the ability of 19d to reverse MK-801 disruptions of novel object recognition (NOR) in rats (Figure 6).
Figure 6 Rat MK-801 induced disruption of novel object recognition and reversal by VU6024578 (19d). MK-801 (0.5 mg/kg IP) induced a robust disruption of NOR, which was dose-dependently reversed by oral administration (10% tween 80) of 19d.
The animals are habituated to the novel object arenas for 1 day prior to testing. This is accomplished by placing the animal in the arena with no objects for 10 min and then placed back into the home cage. The arena is then cleaned with 70% ethanol in between animals. The day of the test the animals are habituated to the dosing room for 2 h. The animals were administered VU6024578 (1–10 mg/kg p.o.) or vehicle (10% Tween 80) and were placed back into their homecage for 60 min. The animals were then injected with MK-801 (0.075 mg/kg 1 mL/kg s.c.) and placed back in the homecage for 30 min. […] The activity of the animals are recorded and the time spent exploring each of the objects is scored by a blinded observer. Recognition index is determined by subtracting […] divided by total time spent exploring.

[1] = intrinsic clearance, predicted hepatic clearance; assay type: in vitro ADME, rat; details: in vitro predicted hepatic clearance
Description: (§4) Human or rat hepatic microsomes (0.5 mg/mL) and 1 μM test compound were incubated in 100 mM potassium phosphate pH 7.4 buffer with 3 mM MgCl2 at 37 °C with constant shaking. After a 5 min preincubation, the reaction was initiated by addition of NADPH (1 mM). At selected time intervals (0, 3, 7, 15, 25, and 45 min), aliquots were taken and subsequently placed into a 96-well plate containing cold acetonitrile with internal standard (50 ng/mL carbamazepine). Plates were then centrifuged at 3000 rcf (4 °C) for 10 min, and the supernatant was transferred to a separate 96-well plate and diluted 1:1 with water for LC/MS/MS analysis. The in vitro half-life (T1/2, min, eq 1), intrinsic clearance (CLint, mL/min/kg, eq 2) and subsequent predicted hepatic clearance (CLhep, mL/min/kg, eq 3) was determined employing the following equations: [drawing 2] 1 where k represents the slope from linear regression analysis of the natural log percent remaining of test compound as a function of incubation time [drawing 3] 2
(§5) ^ascale-up factors: of 20 (human) or 45 (rat) [drawing 4] 3 where Qh (hepatic blood flow, mL/min/kg) is 21 (human) or 70 (rat).

[2] = intrinsic clearance, predicted hepatic clearance; assay type: in vitro ADME, human; details: in vitro predicted hepatic clearance
Description: as §4, §5

Sprague–Dawley rats = test: spontaneous locomotion; assay type: in vivo; details: rat, doses up to 10 mg/kg p.o.
Description: In order to enable our target validation work, we first profiled PAM 19d in a rat locomotor battery to ensure that pharmacodynamic efficacy was not mistaken for gross effects on locomotion.[20] […] PK was performed in parallel to establish a PK/PD relationship.[24]
Adult male Sprague–Dawley rats were administered VU6024578 (1–10 mg/kg p.o.) or vehicle and were tested in the […]. Seventy minutes later the animals were placed into the activity chambers (Med Associates) for 30 min.

Sequence of 5-HT2B (P41595 whole entry): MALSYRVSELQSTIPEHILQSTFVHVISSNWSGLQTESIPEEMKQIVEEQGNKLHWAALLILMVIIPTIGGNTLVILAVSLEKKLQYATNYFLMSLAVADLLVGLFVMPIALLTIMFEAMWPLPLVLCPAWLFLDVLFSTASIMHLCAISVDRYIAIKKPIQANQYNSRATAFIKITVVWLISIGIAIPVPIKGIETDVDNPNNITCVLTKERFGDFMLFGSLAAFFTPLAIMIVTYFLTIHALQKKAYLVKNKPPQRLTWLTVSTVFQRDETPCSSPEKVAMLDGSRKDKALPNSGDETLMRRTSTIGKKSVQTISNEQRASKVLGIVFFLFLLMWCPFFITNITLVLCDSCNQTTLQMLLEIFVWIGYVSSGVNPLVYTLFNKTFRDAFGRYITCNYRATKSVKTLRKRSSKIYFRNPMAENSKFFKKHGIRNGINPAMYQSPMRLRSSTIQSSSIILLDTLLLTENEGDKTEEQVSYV

## Cn1nc(-c2ccnn2C)cc1CNC(=O)c1cc(-c2ccco2)ccc1Cl [Compound 19d, 2-Chloro-N-((1,2′-dimethyl-1H,2’H-[3,3′-bipyrazol]-5-yl)methyl)-5-(furan-2-yl)benzamide]
5-HT2B
  functional activity at 5-HT2B: inactive
3A4
  IC50: 22 µM
TNF-alpha
  % Inhibition at 10 µM: 2%
Sigma (non-selective)
  % Inhibition at 10 µM: -11%
rats
  minimum effective dose (MED), MK-801 disrupted NOR: 10 mg/kg
[1]
  CLhep, rat: 39 mL/min/kg and 39.3 mL/min/kg
[2]
  CLhep, human: 16 mL/min/kg and 15.8 mL/min/kg
Sprague–Dawley rats
  spontaneous locomotion: lack of effect
